The target in assay [1] is Prostaglandin G/H synthase 1 (Ovis aries) (UniProt P05979). Briefly: Inhibition of ovine COX1 assessed as reduction in prostaglandin E2 production incubated for 10 mins before arachidonic acid addition and measured after 25 mins by LC-MS/MS analysis.
In assay [2] the target is Prostaglandin G/H synthase 2 (Homo sapiens) (UniProt P35354). The assay is described as follows: Inhibition of COX2 (unknown origin) assessed as reduction in prostaglandin E2 production incubated for 10 mins before arachidonic acid addition and measured after 25 mins by LC-MS/MS analysis.

One may read the IC50 as the concentration that inhibits the measured activity by half.

Prostaglandin G/H synthase 2 (Homo sapiens), sequence (P35354 whole entry, looked up): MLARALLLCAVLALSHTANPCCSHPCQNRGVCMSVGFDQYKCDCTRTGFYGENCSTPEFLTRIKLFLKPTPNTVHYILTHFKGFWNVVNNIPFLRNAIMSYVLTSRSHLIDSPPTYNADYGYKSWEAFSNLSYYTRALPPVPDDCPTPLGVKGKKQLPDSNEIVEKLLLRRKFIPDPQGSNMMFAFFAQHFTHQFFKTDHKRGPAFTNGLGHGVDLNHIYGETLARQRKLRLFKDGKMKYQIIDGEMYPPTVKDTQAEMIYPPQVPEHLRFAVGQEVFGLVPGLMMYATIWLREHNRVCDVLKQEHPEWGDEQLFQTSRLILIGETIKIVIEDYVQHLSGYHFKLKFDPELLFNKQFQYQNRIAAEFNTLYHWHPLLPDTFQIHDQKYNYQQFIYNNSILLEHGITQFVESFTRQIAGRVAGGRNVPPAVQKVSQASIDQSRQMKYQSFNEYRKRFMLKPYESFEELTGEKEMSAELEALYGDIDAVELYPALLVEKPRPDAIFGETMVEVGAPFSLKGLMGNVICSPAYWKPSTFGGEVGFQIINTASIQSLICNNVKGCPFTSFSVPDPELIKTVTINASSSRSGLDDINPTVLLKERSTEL

For `COC(=O)[C@@H](C)c1ccc2c(C)cc(O)c(C)c2c1`, the values for the IC50 in assay [1] and in assay [2] were 31 µM and 66.1 µM, respectively.

Source of the values: BindingDB's records for doi:10.1021/acs.jnatprod.8b00318 (Indian Institute of Integrative Medicine (Csir), 2019).
